From patent US8653003B2, “Pyrazol-4-yl carboxamide derivatives as microbiocides” (Syngenta Participations AG, priority 2011, dated 2014)

Columns and labels:
[1] = test system: Puccinia recondita; test: Protective action against Puccinia recondita (brown rust) on wheat leaf segments; format: in vivo; conditions: foliar, 192 h, 0.02% active ingredient sprayed on wheat leaf segments, assessed 8 days after inoculation, read-out: preventive fungicidal activity (inhibition)
Protocol: (§1) Wheat leaf segments were placed on agar in multiwell plates (24-well format) and sprayed with test solutions (0.02% active ingredient). After drying, the leaf disks were inoculated with a spore suspension of the fungus. After appropriate incubation the activity of a compound was assessed 8 days after inoculation as preventive fungicidal activity.

[2] = test system: Erysiphe graminis f. sp. tritici; test: Action against Erysiphe graminis f. sp. tritici (wheat powdery mildew), wheat leaf segments; format: in vivo; conditions: Blumeria graminis, foliar, 168 h; 0.02% active ingredient sprayed on wheat leaf segments, assessed 7 days after inoculation; read-out: preventive fungicidal activity (inhibition)
Protocol: as §1, with “7” for “8”

[3] = test system: Mycosphaerella arachidis (Cercospora arachidicola [anamorph]); test: Action against Mycosphaerella arachidis (early leaf spot of groundnut) - fungal growth assay; format: cell-based; conditions: 0.002% active ingredient, PDB broth, 24° C., photometric after 6-7 days
Protocol: (§2) Conidia of the fungus from cryogenic storage were directly mixed into nutrient broth (Pdb potato dextrose broth). After placing a (DMSO) solution of the test compounds (0.002% active ingredient) into a microtiter plate (96-well format) the nutrient broth containing the fungal spores was added. The test plates were incubated at 24° C. and the inhibition of growth was measured photometrically after 6-7 days. The activity of a compound was expressed as fungal growth inhibition (0=no growth inhibition, ratings of 80% to 99% mean good to very good inhibition, 100%=complete inhibition).

[4] = test system: Septoria tritici; test: Action against Septoria tritici - fungal growth assay; format: cell-based; conditions: Zymoseptoria tritici; 0.002% active ingredient, PDB broth, 24° C., photometric after 72 hrs
Protocol: as §2, with “(PDB” for “(Pdb”, “determined” for “measured”, “72 hrs.” for “6-7 days.”

[5] = test system: Puccinia recondita; test: Curative action against Puccinia recondita (brown rust) on wheat leaf segments; format: in vivo; conditions: foliar, 0.02% active ingredient sprayed one day after inoculation, assessed 8 days after inoculation, read-out: curative fungicidal activity (inhibition)
Protocol: Wheat leaf segments were placed on agar in multiwell plates (24-well format) and inoculated with a spore suspension of the fungus. One day after inoculation the leaf segments were sprayed with test solutions (0.02% active ingredient). After appropriate incubation the activity of a compound was assessed 8 days after inoculation as curative fungicidal activity.

[6] = test system: Pyrenophora teres; test: Action against Pyrenophora teres (net blotch) on barley leaf segments; format: in vivo; conditions: foliar, 96 h, 0.02% active ingredient sprayed on barley leaf segments, assessed 4 days after inoculation, read-out: preventive fungicidal activity (inhibition)
Protocol: as §1, with “Barley” for “Wheat”, “4” for “8”

[7] = test system: Botrytis cinerea; test: Action against Botrytis cinerea - fungal growth assay; format: cell-based; conditions: 0.002% active ingredient, PDB broth, 24° C., photometric after 3-4 days
Protocol: as §2, with “storage was” for “storage were”, “broth (PDB” for “broth (Pdb”, “after 3-4” for “after 6-7”

| SMILES | inhibition at 0.02 % strength [1] | inhibition at 0.02 % strength [2] | inhibition at 0.002 % strength [3] | inhibition at 0.002 % strength [4] | inhibition at 0.02 % strength [5] | inhibition at 0.02 % strength [6] | melting point | inhibition at 0.002 % strength [7] |
| --- | --- | --- | --- | --- | --- | --- | --- | --- |
| CON(C(=O)c1cn(C)nc1C(F)F)C1CCCc2ccc(Cl)cc21 (stereo not shown) [Compound 1.003, 3-difluoromethyl-1-methyl-1H-pyrazole-4-carboxylic acid (7-chloro-1,2,3,4-tetrahydro-naphthalen-1-yl)-methoxy-amide] | ≥ 80% | ≥ 80% | ≥ 80% | ≥ 80% | ≥ 80% | ≥ 80% | – | – |
| CON(C(=O)c1cn(C)nc1C(F)F)C1CCCCc2ccc(I)cc21 (stereo not shown) [Compound 1.062, 3-difluoromethyl-1-methyl-1H-pyrazole-4-carboxylic acid (3-iodo-6,7,8,9-tetrahydro-5-H-benzocyclohepten-5-yl)-methoxy-amide] | ≥ 80% | – | ≥ 80% | ≥ 80% | ≥ 80% | – | – | – |
| CON(C(=O)c1cn(C)nc1C(F)F)C1CCCc2ccccc21 (stereo not shown) [Compound 1.001] | ≥ 80% | ≥ 80% | ≥ 80% | ≥ 80% | ≥ 80% | ≥ 80% | 91 to 95 °C | ≥ 80% |
| CON(C(=O)c1cn(C)nc1C(F)F)C1c2ccccc2CCCC1F (stereo not shown) [Compound 1.065, 3-difluoromethyl-1-methyl-1H-pyrazole-4-carboxylic acid (6-fluoro-6,7,8,9-tetrahydro-5-H-benzocyclohepten-5-yl)-methoxy-amide] | ≥ 80% | ≥ 80% | ≥ 80% | ≥ 80% | ≥ 80% | ≥ 80% | – | ≥ 80% |
